Measured values from US9695155B2, “Herbicidal substituted pyrimidinyloxy benzene compounds” (E. I. DU PONT DE NEMOURS AND COMPANY, priority 2013, dated 2017).

Key:
lambsquarters = test: Test E preemergence; format: in vivo, Chenopodium album; conditions: for Lambsquarters plant response rating: scale 0 to 100 (0 no effect, 100 complete control); for Plant response rating, Lambsquarters: 125 g ai/ha, scale 0 to 100, 0 no effect, 100 complete control
From the text: (§1) Seeds of plant species selected from corn (Zea mays), soybean (Glycine max), velvetleaf (Abutilon theophrasti), lambsquarters (Chenopodium album), wild poinsettia (Euphorbia heterophylla), palmer pigweed (Amaranthus palmeri), waterhemp (common waterhemp, Amaranthus rudis), surinam grass (Brachiaria decumbens), large (Lg) crabgrass (Digitaria sanguinalis), Brazilian crabgrass (Digitaria horizontalis), fall panicum (Panicum dichotomiflorum), giant foxtail (Setaria faberii), green foxtail (Setaria viridis), goosegrass (Eleusine indica), johnsongrass (Sorghum halepense), ragweed (common ragweed, Ambrosia elatior), barnyardgrass (Echinochloa crus-galli), sandbur (southern sandbur, Cenchrus echinatus), arrowleaf sida (Sida rhombifolia), Italian ryegrass (Lolium multiflorum), dayflower (Virginia (VA) dayflower, Commelina virginica), field bindweed (Convolvulus arvensis), morningglory (Ipomoea coccinea), nightshade (eastern black nightshade, Solanum ptycanthum), kochia (Kochia scoparia), yellow nutsedge (Cyperus esculentus), cocklebur (common cocklebur, Xanthium strumarium), smartweed (ladysthumb smartweed, and hairy beggarticks (Bidens pilosa), were planted into a silt loam soil and treated preemergence with test chemicals formulated in a non-phytotoxic solvent mixture which included a surfactant.
(§2) At the same time, plants from these crop and weed species and also horseweed (Canada horseweed, Conyza canadensis), waterhemp_RES1, (ALS & Triazine resistant common waterhemp, Amaranthus rudis), and waterhemp_RES2, (ALS & HPPD resistant common waterhemp, Amaranthus rudis) were planted in pots containing Redi-Earth® planting medium (Scotts Company, 14111 Scottslawn Road, Marysville, Ohio 43041) comprising spaghnum peat moss, vermiculite, wetting agent and starter nutrients were treated with postemergence applications of test chemicals formulated in the same manner. Plants ranged in height from 2 to 18 cm for postemergence treatments (1- to 4-leaf stage). Treated plants and controls were maintained in a greenhouse for 14 to 21 days, after which time all species were compared to controls and visually evaluated. Plant response ratings, summarized in Table E, are based on a scale of 0 to 100 where 0 is no effect and 100 is complete control. A dash (-) response means no test result.

field bindweed = test: Test E preemergence; format: in vivo, Convolvulus arvensis; conditions: for Field Bindweed plant response rating: scale 0 to 100 (0 no effect, 100 complete control); for Plant response rating, Field Bindweed: 125 g ai/ha, scale 0 to 100, 0 no effect, 100 complete control
From the text: as §1, §2

corn = test: Test E preemergence; format: in vivo, Zea mays; conditions: for Corn plant response rating: scale 0 to 100 (0 no effect, 100 complete control); for Plant response rating, Corn: 125 g ai/ha, scale 0 to 100, 0 no effect, 100 complete control
In short: (§3)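 Response was scored visually on a 0-100 scale (100 = complete control) versus controls after 14 to 21 days in the greenhouse. Test chemicals, formulated with surfactant in a non-phytotoxic solvent mixture, had been applied preemergence to seeds in silt loam soil or postemergence to 1- to 4-leaf plants in potting medium.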

wild poinsettia = test: Test E preemergence; format: in vivo, Euphorbia heterophylla; conditions: for Poinsettia, Wild plant response rating: scale 0 to 100 (0 no effect, 100 complete control); for Plant response rating, Poinsettia, Wild: 125 g ai/ha, scale 0 to 100, 0 no effect, 100 complete control
From the text: as §1, §2

goosegrass = test: Test E preemergence; format: in vivo, Eleusine indica; conditions: for Goosegrass plant response rating: scale 0 to 100 (0 no effect, 100 complete control); for Plant response rating, Goosegrass: 125 g ai/ha, scale 0 to 100, 0 no effect, 100 complete control
In short: as §3

barnyardgrass = test: Test E preemergence; format: in vivo, Echinochloa crus-galli; conditions: for Barnyardgrass plant response rating: scale 0 to 100 (0 no effect, 100 complete control); for Plant response rating, Barnyardgrass: scale 0 to 100, 0 no effect, 100 complete control
In short: as §3

Brazilian crabgrass = test: Test E preemergence; format: in vivo, Digitaria horizontalis; conditions: for Crabgrass, Brazil plant response rating: scale 0 to 100 (0 no effect, 100 complete control); for Plant response rating, Crabgrass, Brazil: 125 g ai/ha, scale 0 to 100, 0 no effect, 100 complete control
From the text: as §1, §2

waterhemp = test: Test E preemergence; format: in vivo, Amaranthus rudis; conditions: for Waterhemp plant response rating: scale 0 to 100 (0 no effect, 100 complete control); for Plant response rating, Waterhemp: 125 g ai/ha, scale 0 to 100, 0 no effect, 100 complete control
In short: as §3

kochia [1] = test: Test A postemergence; format: in vivo, Kochia scoparia; conditions: 0 to 100 scale, 0 no effect, 100 complete control
In short: (§4)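 Compounds in non-phytotoxic solvent with surfactant applied as soil spray preemergence, or postemergence to plants 2-10 cm at one- to two-leaf stage, in loam/sand. After approximately 10 days in greenhouse, injury rated visually versus untreated controls, 0 (no effect) to 100 (complete control).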

kochia [2] = test: Test A preemergence; format: in vivo, Kochia scoparia
In short: as §4

galium = test: Test A postemergence; format: in vivo, Galium aparine; conditions: 0 to 100 scale, 0 no effect, 100 complete control
In short: as §4

Italian ryegrass = test: Test A preemergence; format: in vivo, Lolium multiflorum
In short: as §4

[3] = 31 g ai/ha, 0 to 100 scale where 0 is no effect and 100 is complete control, visual, approximately 10 days

Row | SMILES | Lambsquarters plant response rating (lambsquarters; 31 g ai/ha) | Lambsquarters plant response rating (lambsquarters; 62 g ai/ha) | Plant response rating, Lambsquarters (lambsquarters) | Field Bindweed plant response rating (field bindweed; 16 g ai/ha) | Field Bindweed plant response rating (field bindweed; 31 g ai/ha) | Field Bindweed plant response rating (field bindweed; 62 g ai/ha) | Plant response rating, Field Bindweed (field bindweed) | Corn plant response rating (corn; 16 g ai/ha) | Corn plant response rating (corn; 31 g ai/ha) | Corn plant response rating (corn; 62 g ai/ha) | Plant response rating, Corn (corn) | Poinsettia, Wild plant response rating (wild poinsettia; 31 g ai/ha) | Poinsettia, Wild plant response rating (wild poinsettia; 62 g ai/ha) | Plant response rating, Poinsettia, Wild (wild poinsettia) | Goosegrass plant response rating (goosegrass; 31 g ai/ha) | Goosegrass plant response rating (goosegrass; 62 g ai/ha) | Plant response rating, Goosegrass (goosegrass) | Barnyardgrass plant response rating (barnyardgrass; 16 g ai/ha, preemergence) | Barnyardgrass plant response rating (barnyardgrass; 31 g ai/ha, preemergence) | Plant response rating, Barnyardgrass (barnyardgrass; preemergence, 125 g ai/ha) | also measured
1 | N#Cc1cnn(-c2c(C#N)cccc2Oc2ncc(F)cn2)c1 [Compound 111] | 80 | 98 | 100 | 15 | 15 | 60 | 80 | 0 | 0 | 0 | 15 | 30 | 70 | 85 | 5 | 40 | 65 | 0 | 0 | 35 | Lambsquarters plant response rating (lambsquarters; 16 g ai/ha): 50; Poinsettia, Wild plant response rating (wild poinsettia; 16 g ai/ha): 15; Goosegrass plant response rating (goosegrass; 16 g ai/ha): 0; Plant response rating, Barnyardgrass (barnyardgrass; Preemergence, 62 g ai/ha): 0; Crabgrass, Brazil plant response rating (Brazilian crabgrass; 16 g ai/ha): 0; Crabgrass, Brazil plant response rating (Brazilian crabgrass; 31 g ai/ha): 30; Crabgrass, Brazil plant response rating (Brazilian crabgrass; 62 g ai/ha): 75; Plant response rating, Crabgrass, Brazil (Brazilian crabgrass): 100; Waterhemp plant response rating (waterhemp; 16 g ai/ha): 0; Waterhemp plant response rating (waterhemp; 31 g ai/ha): 65; Waterhemp plant response rating (waterhemp; 62 g ai/ha): 80; Plant response rating, Waterhemp (waterhemp): 100
2 | FCc1cccc(Oc2ncc(Cl)cn2)c1-n1cc(Cl)cn1 [Compound 250] | 0 | 0 | 100 | 0 | 0 | 0 | 0 | 0 | 0 | 0 | 20 | 0 | 0 | 20 | 0 | 0 | 65 | 0 | 0 | 25 | Plant response rating, Kochia (kochia [1]; 31 g ai/ha): 60; Plant response rating, Kochia (kochia [1]; 125 g ai/ha): 90; Plant response rating, Kochia (kochia [2]; [3]): 90; Kochia plant response rating (0 to 100 scale) (kochia [2]; 125 g ai/ha): 0; Plant response rating, Galium (galium; 31 g ai/ha): 10; Plant response rating, Galium (galium; 125 g ai/ha): 60; Barnyardgrass plant response rating (barnyardgrass; 62 g ai/ha, preemergence): 0; Plant response rating, Ryegrass, Italian (Italian ryegrass; [3]): 0; Ryegrass, Italian plant response rating (0 to 100 scale) (Italian ryegrass; 125 g ai/ha): 0; Crabgrass, Brazil plant response rating (Brazilian crabgrass; 16 g ai/ha): 0; Crabgrass, Brazil plant response rating (Brazilian crabgrass; 31 g ai/ha): 0; Crabgrass, Brazil plant response rating (Brazilian crabgrass; 62 g ai/ha): 5; Plant response rating, Crabgrass, Brazil (Brazilian crabgrass): 98; Waterhemp plant response rating (waterhemp; 31 g ai/ha): 0; Waterhemp plant response rating (waterhemp; 62 g ai/ha): 0; Plant response rating, Waterhemp (waterhemp): 100
